Positions count from the first letter of the chain named.
Assays:
Assay type in all cases: biochemical
[1] = target: Zea mays EPSPS variant 224R 249V (Zea mays, UniProt O24566, K223R/Y248V); experiment: EPSPS reaction rate with or without 10 uM glyphosate, 224R 249V; details: pH 7; read-out: Reaction rate with 10 μM glyph, % no glyph; also: 50 µM PEP and S3P
[2] = target: T1, Zea mays EPSPS variant Zm-T103I (Zea mays, UniProt O24566, T102I); experiment: Substrate saturation kinetic analysis with glyphosate, Zm-T103I
T1 construct: native maize plus T103I; E. coli BL21(DE3), Ni-NTA purified
T1 sequence (O24566 with tags, fused parts or gaps T102I): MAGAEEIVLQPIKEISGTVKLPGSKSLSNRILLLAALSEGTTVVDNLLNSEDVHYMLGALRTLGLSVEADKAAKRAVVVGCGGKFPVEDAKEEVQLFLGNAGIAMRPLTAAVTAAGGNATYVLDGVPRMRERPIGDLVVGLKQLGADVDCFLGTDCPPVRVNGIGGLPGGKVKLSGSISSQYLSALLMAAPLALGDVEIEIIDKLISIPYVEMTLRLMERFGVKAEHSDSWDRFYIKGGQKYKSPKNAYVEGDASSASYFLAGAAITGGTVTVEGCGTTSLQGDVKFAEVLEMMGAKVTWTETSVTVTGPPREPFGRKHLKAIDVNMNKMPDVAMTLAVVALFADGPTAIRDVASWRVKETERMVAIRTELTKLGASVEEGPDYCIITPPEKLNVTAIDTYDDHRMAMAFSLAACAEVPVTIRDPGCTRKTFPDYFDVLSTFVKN

[3] = target: T2, Zea mays EPSPS variant Zm-H6 (868-H6) with A36G (H6-A36G) (Zea mays, UniProt O24566, A1R/A35G/A3W/A415G/A71Q/D401G/E301S/E390G/G101A/I207L/K83R/L97C/T278A/T360S/T440Q/V437R); experiment: Rapid two-rate method for (kcat/KM)*KI, H6-A36G; details: [E] 0.07 uM, [Gly] 1000 uM
T2 sequence (O24566 with tags, fused parts or gaps A1R/A3W/A35G/A71Q/K83R/L97C/G101A/I207L/T278A/E301S/T360S/E390G/D401G/A415G/V437R/T440Q): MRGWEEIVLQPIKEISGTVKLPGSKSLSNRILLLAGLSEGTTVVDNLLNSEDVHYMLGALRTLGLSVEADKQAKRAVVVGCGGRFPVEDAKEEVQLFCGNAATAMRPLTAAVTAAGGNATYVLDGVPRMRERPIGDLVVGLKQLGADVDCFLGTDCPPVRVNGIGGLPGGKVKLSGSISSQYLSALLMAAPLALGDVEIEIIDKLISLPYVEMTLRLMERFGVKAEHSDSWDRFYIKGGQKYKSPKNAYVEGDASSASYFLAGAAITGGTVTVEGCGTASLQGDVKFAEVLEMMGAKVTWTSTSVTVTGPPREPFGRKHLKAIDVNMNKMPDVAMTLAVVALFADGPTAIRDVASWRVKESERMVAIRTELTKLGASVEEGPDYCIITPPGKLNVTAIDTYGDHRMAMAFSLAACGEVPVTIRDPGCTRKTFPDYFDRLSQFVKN
From the text: (§1) There are several practical considerations for accurately estimating (kcat/KM)*KI with the rapid method. […] 2) The inhibitor concentration must be adjusted so as to obtain a degree of inhibition that minimally amplifies the error in the term v0-vi in Equation 3. If inhibition is too little, v0-vi will be small, and the error in the multiplier vi×v0/(v0-vi) will be large. […] 3) Substrate concentration should be set at the approximate KM of the parental variant(s), subject to the sensitivity of the assay. High substrate concentration obscures sensitivity to the inhibitor and reduces stringency for capturing improvements in KM. Depending on the necessity for speed, there exists opportunity for customizing enzyme and inhibitor concentrations. […] The rapid method was repeated for those and obtained data that correlated better with data obtained by substrate saturation analysis. For screening purposes however, that correlation step is not necessary. Conditions can be set so that variants with a pre-determined minimal fitness level are accurately quantified.
(§2) In Table 15, parameters above the heavy line for the rapid method were obtained under standard conditions. For variants shown below the heavy line, the rapid analysis was repeated with enzyme or glyphosate concentrations adjusted as needed to generate sufficient signal within the limits for linear initial rates.

[4] = target: T3, Zea mays EPSPS variant Zm-H6 (868-H6) with V87T (H6-V87T) (Zea mays, UniProt O24566, A1R/A3W/A415G/A71Q/D401G/E301S/E390G/G101A/I207L/K83R/L97C/T278A/T360S/T440Q/V437R/V86T); experiment: Rapid two-rate method for (kcat/KM)*KI, H6-V87T; details: [E] 0.07 uM, [Gly] 1000 uM
T3 construct: 868-H6 plus V87T; E. coli BL21(DE3), Ni-NTA purified
T3 sequence (O24566 with tags, fused parts or gaps A1R/A3W/A71Q/K83R/V86T/L97C/G101A/I207L/T278A/E301S/T360S/E390G/D401G/A415G/V437R/T440Q): T2 sequence (O24566 with tags, fused parts or gaps A1R/A3W/A35G/A71Q/K83R/L97C/G101A/I207L/T278A/E301S/T360S/E390G/D401G/A415G/V437R/T440Q) with G36A, V87T
From the text: as §1, §2

Sequence of Zea mays EPSPS variant 224R 249V (O24566 entry or part of it K223R/Y248V): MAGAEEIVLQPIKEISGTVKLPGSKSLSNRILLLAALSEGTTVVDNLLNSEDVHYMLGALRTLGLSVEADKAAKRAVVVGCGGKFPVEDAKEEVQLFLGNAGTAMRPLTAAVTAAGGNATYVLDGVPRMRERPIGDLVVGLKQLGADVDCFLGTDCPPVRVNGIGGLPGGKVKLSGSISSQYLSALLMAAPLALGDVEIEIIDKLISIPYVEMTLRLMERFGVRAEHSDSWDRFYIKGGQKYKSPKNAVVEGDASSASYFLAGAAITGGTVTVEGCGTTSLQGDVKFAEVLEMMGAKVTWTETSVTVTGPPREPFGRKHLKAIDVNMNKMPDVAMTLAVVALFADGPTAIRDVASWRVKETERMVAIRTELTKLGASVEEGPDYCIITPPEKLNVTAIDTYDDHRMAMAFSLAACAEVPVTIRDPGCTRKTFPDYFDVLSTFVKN

Q: Which activity at 10 µM [1] does the source give for `O=C(O)CNCP(=O)(O)O` [glyphosate, N-phosphonomethylglycine] here?
A: Its activity at 10 µM is 3.09%.

Q: And the Ki [2]?
A: The Ki was 53 µM.

Q: And the “(kcat/KM)*KI” value ([2]; substrate saturation, Zm-T103I)?
A: Its value is 99.

Q: And the “(kcat/KM)*KI” value [3]?
A: The value was 4500.

Q: What about the “(kcat/KM)*KI” value [4] of the same molecule?
A: Its value is 3190.
